“Also recorded” adds a separate entry of the source. Ends that are not written are not given here. Peptide text beside a SMILES is read from it. * marks the point of attachment. biotin = biotin on the C-terminal Lys, O=C1N[C@H]2[C@H](CS[C@H]2CCCCC(=O)*)N1; Biotin = O=C1N[C@H]2[C@H](CS[C@H]2CCCCC(=O)*)N1

One series has as its system FL-DCs. Briefly: Uptake of peptide^biotin-SA-PE by FL-DCs, confocal microscopy. The class given is cell-based, mouse. Particulars: for effect of endocytosis inhibitor on uptake of CBP-12 by FL-DCs: pre-incubation 1 h with inhibitor, then 50 μM CBP-12^biotin-SA-PE 2 h at 37 °C. As to the method:
Biotinylated peptide was mixed with SA-PE in a molar ratio of 1: 3 to obtain SA-PE labeled peptide (peptide^biotin-SA-PE). FL-DCs from wild type (WT) or Clec9a^-/- mice was harvested and washed twice with PBS before use. […] After washing, cells were incubated with Hoechst 33342 (Beyotime Biotechnology, Beijing, China) for 1 h to stain the nucleus. Cells were analyzed with a confocal laser scanning microscopy (Leica TCS SP8, Wetzlar, Germany).

For series [1], the target named is T1, mouse Clec9a (mClec9a) protein (Mus musculus, UniProt Q8BRU4).
T1 sequence (Q8BRU4 106-238 limits assumed): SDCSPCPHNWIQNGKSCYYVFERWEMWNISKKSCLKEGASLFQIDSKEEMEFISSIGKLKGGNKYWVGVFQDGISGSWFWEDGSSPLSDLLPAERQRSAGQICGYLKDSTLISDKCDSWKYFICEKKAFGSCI
Briefly: Binding affinity measurement by MST. Conditions: ratio of MST KD values. As to the method:
The affinity of the peptide to mouse Clec9a (mClec9a) protein was detected by microscale thermophoresis (MST) (NanoTemper Technologies GmhH, Germany). Briefly, mClec9a protein (Sino Biological, Beijing, China) was labeled with Red-NHS647 dye (NanoTemper Technologies GmhH, Germany), and the successfully labeled protein was used for affinity measurements. Peptides were diluted into serial concentrations with MST buffer. Equal volume of dye-labeled mClec9a protein was incubated with peptides at room temperature, the mixture was loaded onto capillaries (NanoTemper Technologies GmhH, Germany) and immediately analyzed by an MST instrument. The data were estimated by MO. Affinity Analysis v2.2.4.

The target of the next series is T2, mClec9a (Mus musculus, UniProt Q8BRU4).
T2 construct: expressed in transfected cells; host or cells: HEK-293T
T2 sequence (Q8BRU4 1-264 isoform Q8BRU4-4): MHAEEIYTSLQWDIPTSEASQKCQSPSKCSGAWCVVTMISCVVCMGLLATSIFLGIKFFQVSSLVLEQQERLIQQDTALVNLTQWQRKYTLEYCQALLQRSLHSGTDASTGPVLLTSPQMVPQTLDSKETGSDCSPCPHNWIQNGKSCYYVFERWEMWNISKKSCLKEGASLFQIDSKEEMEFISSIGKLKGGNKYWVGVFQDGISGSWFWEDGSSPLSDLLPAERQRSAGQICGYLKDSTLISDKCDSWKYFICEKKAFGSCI
Briefly: Peptide binding assay by flow cytometry, mClec9a-transfected HEK-293T cells. Conditions: biotinylated peptides 100 µM, 30 min on ice, SA-PE. As to the method:
(§1) HEK-293T cells were transiently transfected with pIRES2-EGFP-mClec9a plasmid, or the mock pIRES2-EGFP plasmid for binding assay. Cells (3 × 10^5) were incubated with rat serum to block Fc receptors and different biotinylated peptides for 30 min on ice. After washing three times, cells were stained with streptavidin (SA)-PE for 30 min on ice, and the samples were analyzed for binding affinity by a flow cytometry after washing once.
On the technique in general: In flow cytometry, cells or beads pass a laser one at a time.

Another series has as its system HEK-293T^mock cells. Briefly: Peptide binding assay by flow cytometry, mock-transfected HEK-293T cells. Particulars: biotinylated peptides 100 µM, 30 min on ice, SA-PE. As to the method:
as §1

In series [2] the test system is spleen cDC1s (CD45^+CD11c^+XCR1^+). Briefly: Uptake of biotinylated peptide by spleen cDC1s in vitro. The series is classed as cell-based. Conditions: mouse splenocytes, 6.25 µM biotinylated peptide 30 min on ice, then 2 h at 37 °C, SA-PE flow cytometry. As to the method:
Mouse splenocytes (5 × 10^5) were incubated with biotinylated GA peptide and CBP-12 for 30 min on ice, and then cells were washed three times and cultured for 2 h at 37 °C. Spleen cells were stained with anti-mouse CD45-FITC (30-F11), anti-mouse CD11c-PerCP-efluor 450 (N418), anti-mouse XCR1-BV650 (ZET) and anti-mouse CD11b-APC (M1/70). Then cells were fixed, permeabilized and further stained with SA-PE for peptide uptake analysis.

In another series the test system is spleen cDC1s. Briefly: Phagocytosis / targeting of cDC1s in vivo. Conditions: 100 μg biotinylated peptide s.c., sacrificed after 15 min, n = 3 per group. More on the design: species or system mouse. The source says: Based on our previous study, Asp248 and Trp250 were two key residues for Clec9a to bind with WH peptide. In order to improve the binding of WH peptide to Clec9a, a silico residue scanning approach was applied to design high affinity WH mutants. The mutants were predicted by using the module of Residue Scanning mutates function, MOE (Molecular Operating Environments) software (2018 version, Chemical Computing Group Inc, Montreal, Quebec, Canada). Two hundred and twenty peptides were obtained, among which 15 peptides were selected and synthesized for experimental identification.
For phagocytosis in vivo, 6-week-old C57BL/6 mice were s.c. vaccinated with 100 μg biotinylated peptide. After 15 min of immunization, mice were sacrificed. Splenocytes were stained with anti-mouse CD45-FITC (30-F11), anti-mouse CD11c-PerCP-efluor […]
were fixed, permeabilized and further stained with SA-PE for CBP-12 targeting […]
For phagocytosis in vitro, FL-DCs were incubated with biotinylated GA peptide and CBP-12 for 30 min on ice, then cells were washed three times and culture for 2 h at 37 °C. FL-DCs were stained with anti-mouse CD45-FITC (30-F11), anti-mouse CD11c-PerCP-efluor 450 (N418), anti-mouse XCR1-BV650 (ZET) and CD11b-APC (M1/70) to mark cDC1s and cDC2s. Then FL-DCs were fixed, permeabilized and […]

A short description of series [3]: In vitro enzyme degradation of peptide in mouse serum. The class given is in vitro ADME. Particulars: 10% (V/V) mouse serum saline solution, peptide 1 mM, 37 °C, sampled 0, 0.25, 0.5, 1 and 2 h, residual peptide by RP-HPLC. As for the experimental part:
further stained with SA-PE. CBP-12 uptake by cDC1s and cDC2s were tested with […]
In vitro enzyme degradation of peptide
Peripheral blood of mice was stand at room temperature for 1 h, centrifuged for 10 min and then the supernatant was acquired. The peptide (1 mM) was added into 10% (V/V) serum saline solution and incubated for 2 h at 37 ℃. The samples taken at different time points were added 90% (V/V) acetonitrile-glacial acetic acid mixture and centrifuged for 15 min, then the supernatants were collected. The content of the residual peptide in samples was analyzed at 0 h, 0.25 h, 0.5 h, 1 h and 2 h by […]
CBP-12-OVA targeting to Clec9a together with adjuvant treated tumor model C57BL/6 or Clec9a−/− mice were s.c. injected with 2 × 10^5 B16-OVA cells. Three days after the tumor implantation, the mice were treated weekly for total of three times, with either 100 μg peptide or normal saline and 30 μg CpG ODN 1826 as adjuvant.
Then the mice were sacrificed after five days of the last injection.
Animal immunization and ex vitro CTL priming without adjuvant
For animal immunization and ex vivo CTL priming, female C57BL/6 mice of 6 -8 weeks were immunized with 20 μg OVA257–264, GA-OVA, CBP-12-OVA, or normal saline s.c. injected once a week for total of three times. Five days after the last

The test system of series [4] is IL-21 in cDC1s (CD11c^+XCR1^+). Briefly: Intracellular cytokine staining for IL-21 in FL-DCs. The series is classed as cell-based, mouse. As to the method:
FL-DCs were incubated with 100 μg/mL OVA257-264, GA-OVA, CBP-12-OVA or PBS and protein transport inhibitor cocktail at 37 °C for 6 h. For Syk phosphorylation inhibition assay, FL-DCs were incubated with 2.5 μM R406 (MCE, New Jersey, USA) for 1 h and then cultured with 100 μg/mL CBP-12-OVA and protein transport inhibitor cocktail at 37 °C for 6 h. IL-21 positive frequency was detected by ICS. R406 is an ATP-competitive Syk kinase inhibitor [26]. Cells stained with anti-mouse-CD11c-APC (N418), anti-mouse/rat XCR1-Brilliant Violet 650™ (ZET) and anti-mouse-IL-21-PE (FFA21) or Rat IgG2a-PE kappa Isotype Control (eBR2a) for IL-21 production were analyzed by a flow cytometry.

For the next series, the target named is human Clec9a (Homo sapiens, UniProt Q6UXN8). Briefly: Binding to human Clec9a (data not shown).
For series [5], the target named is mouse Clec9a (mClec9a) protein (mouse) (UniProt Q8BRU4). Briefly: MST; mClec9a protein labeled with Red-NHS647 dye; peptides in serial dilution in MST buffer, room temperature; MO. Affinity Analysis v2.2.4.
Setting [6] is: 50 µM peptide^biotin-SA-PE, 2 h, 37 °C, confocal.

Sequence of human Clec9a (Q6UXN8 whole entry): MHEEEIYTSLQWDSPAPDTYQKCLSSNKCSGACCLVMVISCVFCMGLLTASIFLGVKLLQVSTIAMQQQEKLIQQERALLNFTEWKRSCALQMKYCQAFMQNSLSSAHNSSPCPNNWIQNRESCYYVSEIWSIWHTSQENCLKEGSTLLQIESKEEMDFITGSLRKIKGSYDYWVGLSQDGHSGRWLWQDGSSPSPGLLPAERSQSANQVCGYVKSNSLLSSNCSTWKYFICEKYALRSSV

As to `N=C(N)NC(=O)c1nc(Cl)c(N)nc1N` [amiloride, reference compound], the “effect of endocytosis inhibitor on uptake of CBP-12 by FL-DCs” value with FL-DCs is recorded as “inhibited”.

In the case of `CN(C)CCCN1c2ccccc2Sc2ccc(Cl)cc21` [chlorpromazine, reference compound], in the series with FL-DCs, the “effect of endocytosis inhibitor on uptake of CBP-12 by FL-DCs” value was “inhibited”.

`CC(C)[C@H](NC(=O)[C@H](CO)NC(=O)[C@H](CO)NC(=O)[C@H](Cc1c[nH]cn1)NC(=O)[C@H](Cc1ccccc1)NC(=O)[C@H](CCCNC(=N)N)NC(=O)[C@@H]1CCCN1C(=O)[C@@H](N)Cc1c[nH]c2ccccc12)C(=O)N[C@@H](CCCNC(=N)N)C(=O)N[C@@H](Cc1c[nH]cn1)C(=O)N[C@H](C(=O)N[C@@H](Cc1c[nH]cn1)C(=O)NCC(=O)NCC(=O)NCC(=O)N[C@@H](CCCCNC(=O)CCCC[C@@H]1SC[C@@H]2NC(=O)N[C@@H]21)C(=O)O)[C@@H](C)O` [CBP-12] (H-WPRFHSSVRHTHGGGK(Biotin)-OH; N-terminus and C-terminus assumed): in series [1], the “affinity for mClec9a relative to WH peptide” value is 37.2 fold. Besides, on mClec9a, the “binding to mClec9a-overexpressing HEK-293T cells” value was “higher binding affinity than the other peptides”. Further, the “binding to mock plasmid transfected HEK-293T cells” value in the series on HEK-293T^mock cells is “did not bind”. In series [2], the “uptake by spleen cDC1s in vitro” value is recorded as “strong uptake”. In addition, in the series on spleen cDC1s, the “targeting of cDC1s versus cDC2s in vivo” value is reported as “could target to cDC1s but not cDC2s”. Besides, in the series on FL-DCs (setting [6]), the “fluorescence signal in FL-DCs derived from Clec9a^-/- mice” value is “much lower” and the “fluorescence signal in FL-DCs of WT mice” value is “strong fluorescence signal”. Moreover, in series [3], the “stability in mouse serum” value is on record as “resists protease hydrolysis; also recorded: stable in mouse serum for 1 h”. The “secretion of IL-21 from cDC1s, ICS” value in [4] (FL-DCs, 100 µg/mL peptide, 6 h, 37 °C) is “stimulated the secretion of IL-21 from cDC1s”. Further, the “binding to human Clec9a” value on human Clec9a is given as “could bind”.

For `COc1cc(Nc2ncc(F)c(Nc3ccc4c(n3)NC(=O)C(C)(C)O4)n2)cc(OC)c1OC` [R406, reference compound], the “effect on CBP-12-OVA induced IL-21 secretion from cDC1s” value in series [4] (2.5 µM R406 for 1 h, then 100 µg/mL CBP-12-OVA 6 h) is reported as “suppress the secretion of IL-21”.

For WPRFHSSVFHTHGGGK(biotin) [WH^biotin (WH peptide, …-GGG-K^biotin)], the Kd in series [5] was found to be 22.7 µM.

WPRFHSSVRHTHGGGK(biotin) [CBP-12^biotin (12-mer Clec9a binding peptide, …-GGG-K^biotin)] registered a Kd in [5] of 0.61 µM.

One may read the Kd as a measure of binding affinity in units of concentration. Read a high Kd as weaker binding.

The record behind these values is article PMC8210616, “Adjuvant-free peptide vaccine targeting Clec9a on dendritic cells can induce robust antitumor immune response through Syk/IL-21 axis” (Theranostics, 2021).
